Patent US20090137652A1, “METHODS FOR NEUROPROTECTION” (priority 2005, published 2009)
“And” between values parts separate entries of the source, which are not always exact repeats. Equal values may be shown once.

Legend:
Assay type in all cases: in vivo, rat
[1] = test system: rats subjected to Li-pilo induced SE; test: Quantification of cell densities after lithium-pilocarpine SE (Example 1); conditions: for cell loss, CA1 pyramidal layer: significant vs pilo-DZP
Description: (§1) The effects of increasing doses of the test compound were studied on 3 groups of rats. The animals of the first group received 10 mg/kg of the test compound, i.p., 1 h after the onset of SE (pilo-TC10) while the animals of groups 2 and 3 received 30 and 60 mg/kg of the test compound (pilo-TC30 and pilo-TC60), respectively.
(§2) Another group was injected with 2 mg/kg diazepam (DZP, i.m.) at 1 h after the onset of SE. This is a standard treatment to improve animals survival after SE (pilo-DZP). The control group received saline instead of pilocarpine and the test compound (saline-saline). The pilo-test compound rats surviving SE were then injected about 10 h after the first test compound injection with a second i.p. injection of the same dose of the test compound and were maintained under a twice daily treatment with the test compound for 6 additional days. Pilo-DZP received a second injection of 1 mg/kg DZP on the day of SE at about 10 h after the first one. Thereafter, Pilo-DZP and saline-saline rats received twice daily an equivalent volume of saline.
Quantification of cell densities was performed at […] after SE on 8 pilo-DZP, 8 pilo-TC10, 7 pilo-TC30, 7 pilo-TC60, and 6 saline-saline rats. At 14 days after SE, animals were deeply anesthetized with […] pentobarbital (Dolethal®, Vetoquinol, Lure, France. Brains were then removed and frozen. Serial 20 μm slices were cut in a cryostat, air-dried during several days before thionine staining.
Quantification of cell densities was performed with a 10×10 boxes 1 cm^2 microscopic grid on coronal sections according to the stereotaxic coordinates of the rat brain atlas (Paxinos and Watson, 1986, The Rat brain in Stereotaxic Coordinates, 2nd ed. Academic Press, San Diego). Cell counts were performed twice in a blind manner and were the average of at least 3 values from 2 adjacent sections in each individual animal. Counts involved only cells larger than 10 μm, smaller ones being considered as glial cells.
For the comparison of the characteristics of SE in pilo-saline and pilo-test compound animals, a non-paired Student's t-test was used. The comparison between the number of rats seizing in both groups was performed by means of a Chi square test. For neuronal damage, statistical analysis between groups was performed using ANOVA followed by a Fisher's test for multiple comparisons using the Statview software (Fisher R A, 1946a, Statistical Methods for Research Workers (10th edition) Oliver & Boyd, Edinburgh; Fisher R A, 1946b, The Design of Experiments (4th edition) Oliver & Boyd, Edinburgh)

[2] = test system: rats subjected to Li-pilo induced SE; test: Latency to and frequency of spontaneous recurrent seizures (SRS), lithium-pilocarpine model (Example 1)
Description: (§3) All rats received lithium chloride (3 meq/kg, i.p., Sigma, St Louis, Mo., U.S.A.); about 20 h later, animals were placed into plexiglas boxes, in order to record baseline cortical EEG. Methylscopolamine bromide (1 mg/kg, s.c., Sigma) was administered to limit the peripheral effects of the convulsant. SE was induced by injecting pilocarpine hydrochloride (25 mg/kg, s.c., Sigma) 30 min after methyl-scopolamine. The bilateral EEG cortical activity was recorded during the whole duration of SE and behavioral changes were noted.
as §1, §2
(§4) The effects of the test compound on the EEG and on the latency to occurrence of SRS were investigated by daily video recording of the animals for 10 h per day and the recording of the electrographic activity twice a week for 8 h.
To calculate the frequency of SRS in pilocarpine-exposed rats, the seizure severity and distinguished stage III (clonic seizures of facial muscles and anterior limbs) and stage IV-V seizures (rearing and falling) was considered. The frequency of stage III SRS per week in pilo-DZP and pilo-test compound rats was variable amongst the groups. It was low, constant in the pilo-DZP and pilo-TC60 (with early SRS onset) groups during the first 3 weeks and had disappeared during the 4th week in the pilo-DZP group. […] The frequency of more severe stage IV-V SRS was highest during the first week in most groups, except pilo-TC30 and TC60 with late seizure onset where the SRS frequency was constant over the whole 4 weeks in TC30 group and over the first two weeks in the pilo-TC60 group with late SRS onset in which no stage IV-V seizures where no seizures recorded after the second week.

[3] = test system: rats subjected to Li-pilo induced SE; test: Mortality induced by lithium-pilocarpine status epilepticus (Example 1)
Description: (§5) Male Wistar rats weighing 225-250 g, provided by Janvier Breeding Center (Le Genest-St-lste, France) were housed under controlled standard conditions (light/dark cycle, 7.00 a.m.-7.00 p.m. lights on), with food and water available ad libitum. All animal experimentation was performed in accordance with the rules of the European Communities Council Directive of Nov. 24, 1986 (86/609/EEC), and the French Department of Agriculture (License No 67-97). For electrode implantation, rats were anesthetized by an i.p. injection of 2.5 mg/kg diazepam (DZP, Valium, Roche, France) and […] ketamine chlorhydrate (Imalgene 1000, Rhone Merrieux, France). Four single-contact recording electrodes were placed on the skull, over the parietal cortex, two on each side.
as §3, §1, §2
The difference was statistically significant (p<0.01).

[4] = test system: rats subjected to Li-pilo induced SE; test: EEG patterns during lithium-pilocarpine SE (Example 1)
Description: as §5, §3, §1, §2, §4

[5] = pilo-DZP compared to saline-saline rats

Structure (SMILES): CN1C(=O)CN=C(c2ccccc2)c2cc(Cl)ccc21 [DZP, diazepam, reference compound]
- cell loss, CA1 region of the hippocampus (pyramidal cell layer) [1, 5]: 70% and 75%
- cell loss, CA3a [1, 5]: 54%
- cell loss, CA3b [1, 5]: 31%
- cell loss, dorsal entorhinal cortex layer II [1, 5]: 9%
- cell loss, dorsal entorhinal cortex layers III-IV [1, 5]: 15%
- cell loss, hilus of the dentate gyrus [1, 5]: 73%
- cell loss, lateral thalamic nucleus [1, 5]: 91%
- cell loss, mediodorsal thalamic nucleus [1, 5]: 56%
- cell loss, piriform cortex layer II [1, 5]: 53%
- cell loss, piriform cortex layers III-IV [1, 5]: total
- cell loss, ventral entorhinal cortex layer II [1, 5]: totally preserved
- cell loss, ventral entorhinal cortex layers III-IV [1, 5]: 44%
- frequency of stage IV-V SRS ([2]; pilo-DZP, first week): 11.3 SRS per week
- latency to SRS ([2]; pilo-DZP, n=9): 18.2 ± 6.9 days
- degree of mortality during the first 48 h after SE ([3]; pilo-DZP, DZP 2 mg/kg i.m. 1 h after onset of SE, 5/22): 23%
- EEG activity in the cortex and the hippocampus by 6-7 h of SE ([4]; DZP-treated rats (2 mg/kg i.m.)): spiking activity was still present

Structure (SMILES): NC(=O)OC[C@@H](O)c1ccccc1Cl [Formula 7]
- neuroprotection compared to pilo-DZP rats, ventral entorhinal cortex layers III-IV ([1]; TC60 (60 mg/kg)): 31%
- reduction of neuronal damage recorded in pilo-DZP rats, piriform cortex layer II ([1]; TC60 (60 mg/kg)): 41%
- reduction of neuronal damage recorded in pilo-DZP rats, piriform cortex layers III-IV ([1]; TC60 (60 mg/kg)): 44%
- more damage (worsening of cell loss) compared with pilo-DZP rats, dorsal entorhinal cortex layers III-IV ([1]; pilo-TC10 (10 mg/kg)): 28%
- more damage (worsening of cell loss) compared with pilo-DZP rats, ventral entorhinal cortex layers III-IV ([1]; pilo-TC10 (10 mg/kg)): 35%
- cell loss, CA1 pyramidal layer ([1]; pilo-TC30 (30 mg/kg)): 35%
- cell loss, CA1 pyramidal layer ([1]; pilo-TC60 (60 mg/kg)): 16%
- cell loss, hilus of the dentate gyrus ([1]; pilo-test compound animals (10, 30, 60 mg/kg)): 69-72%
- reduction of neuronal damage, lateral thalamic nucleus ([1]; test compound 60 mg/kg): 65%
- reduction of neuronal damage, mediodorsal thalamic nucleus ([1]; test compound 60 mg/kg): 42%
- protection in CA3b ([1]; test compound 60 mg/kg vs pilo-DZP): significantly neuroprotective
- protection in the CA3a area ([1]; test compound 10, 30, 60 mg/kg vs pilo-DZP): did not afford any protection
- mean delay to becoming epileptic relative to the other groups of animals ([2]; TC 60 mg/kg, subgroup of animals with delayed SRS): about 9 fold
- rats in which occurrence of spontaneous seizures was delayed ([2]; TC 60 mg/kg, 4 out of 11): 36%
- frequency of stage IV-V SRS ([2]; TC10, TC30 and TC60 (with early SRS onset) groups, first week, significantly reduced vs pilo-DZP): 2.3-6.1 SRS per week
- absence of epilepsy ([2]; TC60 (60 mg/kg)): one rat did not become epileptic in a delay of 9 months post-SE
- latency to SRS ([2]; TC60 (60 mg/kg), subgroup with latency similar to other groups, n=7): 17.6 ± 8.7 days
- latency to SRS ([2]; TC60 (60 mg/kg), subgroup with much longer delay, mean, n=4): 149.8 ± 36.0 days
- latency to SRS ([2]; pilo-TC10 (10 mg/kg, 7-day treatment), n=7): 15.4 ± 5.1 days
- frequency of stage III SRS ([2]; pilo-TC10, weeks 3 and 4): significantly increased over pilo-DZP values
- latency to SRS ([2]; pilo-TC30 (30 mg/kg, 7-day treatment), n=10): 18.9 ± 9.0 days
- frequency of stage IV-V SRS ([2]; pilo-TC60 group with early SRS onset, weeks 2-4, significantly reduced vs pilo-DZP): 0.6-0.9 seizure per week
- degree of mortality during the first 48 h after SE ([3]; pilo-TC10, TC 10 mg/kg i.p. 1 h after onset of SE, 6/23): 26%
- degree of mortality during the first 48 h after SE ([3]; pilo-TC30, TC 30 mg/kg i.p. 1 h after onset of SE, 5/25): 20%
- degree of mortality during the first 48 h after SE ([3]; pilo-TC60, TC 60 mg/kg i.p. 1 h after onset of SE, 1/23, p<0.01): 4%
- EEG activity in the cortex and the hippocampus by 6-7 h of SE ([4]; TC10-treated rats (10 mg/kg i.p.)): spiking activity was still present
- amplitude of the EEG by 6-7 h of SE, hippocampus ([4]; TC30 rats (30 mg/kg i.p.)): came back to baseline levels
- amplitude of the EEG by 6-7 h of SE, hippocampus and cortex (both structures) ([4]; TC60 treated rats (60 mg/kg i.p.)): came back to baseline levels
